Molecules are shown by their SMILES.

Common to all, as to assay: Cancer cell growth inhibition, 72 h treatment
Type in all cases: cell-based

The test system of assay [1] is COLO 205. The following applies: Homo sapiens. As to the method:
(§1) Cell culture-based assays were used to evaluate the ability of compounds of the invention to inhibit cancer cell growth.
(§2) Cells were obtained from the American Type Culture Collection (ATCC) and the European Collection of Cell Cultures. Cells were thawed in their appropriate media plus supplements (see table below). Cells were passaged at confluence by washing once in HBSS cation-free followed by a 3 minutes incubation with trypsin ([0.5 µg/ml]/EDTA [0.2 µg/ml]) (Gibco-BRL, 15400054) solution in HBSS at 37°C (except non-adherent cell lines - hematologic), and transferred to their appropriate media plus supplements. Prior to seeding at defined cell concentration, cells were recovered in medium, centrifuged, taken up in medium and counted.
(§3) All treatments were performed in triplicate. Experiments were carried out in 96-well cell culture plates (Cultek) and the cell lines seeded at the density mentioned in the table above and cultured at 37°C with 5% CO2. After 24h, media were supplemented by 100 µl/well of diluted test compound at variable final concentrations and incubated for 72 hours. Then, AlamarBlue® Reagent (Biosource DAL1100) was added to each well and incubated at 37°C for 4 hours. Relative fluorescent intensity that correlates with the number of living cells was read in a Cytofluor plate reader (Millipore) at 535/590 nm (Excitation/emission). After reading the AlamarBlue® signal, the hexosaminidase activitity was measured according to the following protocol: medium was removed and cells were washed once with PBS. 60 µl of substrate solution (p-nitrophenol-N-acetyl-beta-D-glucosaminide 7.5 mM [Sigma N-9376], sodium citrate 0.1 M, pH 5.0, 0.25% Triton X-1 00) was added to each well and incubated at 37°C for 1-2 hours; after this incubation time, a bright yellow colour appears; then, plates could be developed by adding 90 µl of developer solution (Glycine 50 mM, pH 10.4; EDTA 5 mM), and absorbance was recorded at 405 nm.
(§4) Note: In all cases assays were performed in Alamar Blue with the exception of those indicated (* = Hexosaminidase assay)

Assay [2] concerns MIA PaCa-2. The following applies: Homo sapiens. As to the method:
as §1, §2, §3, §4

Assay [3] deals with SK-OV-3. The following applies: Homo sapiens, Ovarian cancer SK-OV-3, Alamar Blue. The protocol:
as §1, §2, §3, §4

Assay [4] concerns LS174T. The following applies: Homo sapiens, Colon cancer LS174T, Alamar Blue. The protocol: as §1, §2, §3, §4
For assay [5], the system named is A431. The note with it: Homo sapiens. The protocol:
as §1, §2, §3, §4

Assay [6] concerns RCC 786-O. The following applies: Homo sapiens, 786-0, Renal RCC 786-O, Alamar Blue. As to the method: as §1, §2, §3, §4
For assay [7], the system named is SK-Mel-28. The note with it: Homo sapiens, Melanoma SK-Mel-28, Alamar Blue. As to the method: as §1, §2, §3, §4
Assay [8] concerns CCRF-CEM. The note with it: Homo sapiens, Hematologic CCRF-CEM, Alamar Blue. As to the method:
as §1, §2, §3, §4

Assay [9] deals with SK-HEP-1. The following applies: Homo sapiens, SK-HEP1, Liver cancer SK-HEP-1, Alamar Blue. As to the method: as §1, §2, §3, §4
Assay [10] concerns HT-29. The following applies: Homo sapiens, Colon cancer HT-29, Alamar Blue. The protocol: as §1, §2, §3, §4
Assay [11] has as its system NCI-H1975. The note with it: Homo sapiens. The protocol: as §1, §2, §3, §4
Assay [12] relates to U-87 MG. The note with it: Homo sapiens, Brain U-87 MG, Hexosaminidase assay (*). The protocol: as §1, §2, §3, §4
Assay [13] has as its system LNCaP. The following applies: Homo sapiens, Prostate cancer LNCaP, Alamar Blue. The protocol: as §1, §2, §3, §4
Assay [14] relates to SW480. The following applies: Homo sapiens. As to the method:
as §1, §2, §3, §4

Assay [15] deals with RWP-1. The protocol: as §1, §2, §3, §4
Assay [16] deals with HCT-116. The following applies: Homo sapiens, Colon cancer HCT-116, Alamar Blue. As to the method:
as §1, §2, §3, §4

The test system of assay [17] is MCF-7. The note with it: Homo sapiens, MCF7, Breast cancer MCF-7, Alamar Blue. As to the method: as §1, §2, §3, §4
Assay [18] relates to PANC-1. The note with it: Homo sapiens, Pancreatic cancer PANC-1, Alamar Blue. As to the method: as §1, §2, §3, §4
Where [19] appears, read: Colon cancer COLO 205, Alamar Blue.
The mark [20] stands for this setting: Pancreatic cancer MIA PaCa-2, Alamar Blue.
[21] abbreviates: A-431, Epidermoid A431, Alamar Blue.
[22] abbreviates: Lung cancer NCI-H1975, Alamar Blue.
The mark [23] stands for this setting: Colon cancer SW480, Alamar Blue.
The mark [24] stands for this setting: Pancreatic cancer RWP-1, Alamar Blue.
Setting [25] is: Lung cancer NCI-H1975, Hexosaminidase assay (*).
Where [26] appears, read: Colon cancer SW480, Hexosaminidase assay (*).

`CC(C)C[C@H](NC(=O)[C@H]1N[C@@H](c2ccccc2)[C@@H]([N+](=O)[O-])[C@@H]1c1ccccc1)B(O)O` [Example 4, (R)-3-methyl-1-((2S,3R,4S,5S)-4-nitro-3,5-diphenylpyrrolidine-2-carboxamido)butylboronic acid]: the EC50 in [1] (setting [19]) was found to be 3800 nM; in [2] (setting [20]) it was 3000 nM; in [3], 2200 nM; in assay [4] it was 550 nM; in assay [5] (setting [21]), 970 nM; in [6], 1700 nM. For the same compound, the EC50 turned out to be 780 nM in assay [7]; 330 nM in [8]; 290 nM in [9]; 1500 nM in [10]; 41000 nM in assay [11] (setting [22]); 4200 nM in assay [12]. Also, the concentration giving a half-maximal response (EC50) stood at 110 nM in [13]; 610 nM in [14] (setting [23]); 3600 nM in assay [15] (setting [24]); 1300 nM in assay [16]; 23000 nM in assay [17].
As to `CC(C)C[C@H](NC(=O)[C@@H]1N[C@H](c2ccccc2)[C@@H]([N+](=O)[O-])[C@@H]1c1ccco1)B(O)O` [Example 11, (R)-1-((2R,3R,4S,5R)-3-(furan-2-yl)-4-nitro-5-phenylpyrrolidine-2-carboxamido)-3-methylbutylboronic acid], the EC50 amounted to 202 nM in [1] (setting [19]); 850 nM in assay [2] (Pancreatic cancer MIA PaCa-2, Hexosaminidase assay (*)); 330 nM in assay [3]; 580 nM in assay [18]; 20 nM in assay [4]; 20 nM in assay [5] (setting [21]). The EC50 is 1000 nM in assay [6]; 800 nM in assay [7]; 52 nM in assay [8]; 7 nM in [9]; 2500 nM in assay [10]; 840 nM in assay [11] (setting [25]). In addition, the EC50 came out at 890 nM in [12]; 150 nM in assay [13]; 1100 nM in assay [14] (setting [26]); 420 nM in assay [15] (setting [24]); 280 nM in assay [16]; 280 nM in [17].
As for `CC(C)C[C@H](NC(=O)[C@@H]1N[C@H](c2ccccc2)[C@@H]([N+](=O)[O-])[C@@H]1c1cccs1)B(O)O` [Example 10, (R)-3-methyl-1-((2R,3R,4S,5R)-4-nitro-5-phenyl-3-(thiophen-2-yl)pyrrolidine-2-carboxamido)butylboronic acid], the EC50 turned out to be 310 nM in assay [1] (setting [19]); 2400 nM in [2] (setting [20]); 1300 nM in assay [3]; 3000 nM in [18]; 140 nM in assay [4]; 30 nM in [5] (A-431, Epidermoid A431, Hexosaminidase assay (*)). Further, the EC50 in [6] stood at 430 nM; in assay [7], 1600 nM; in assay [8], 170 nM; in [9] it was 490 nM; in [10] it was 3500 nM; in [11] (setting [25]), 1100 nM. The EC50 amounted to 500 nM in assay [12]; 380 nM in assay [13]; 2300 nM in assay [14] (setting [26]); 1100 nM in assay [15] (setting [24]); 640 nM in assay [16]; 490 nM in assay [17].
Regarding `CC(C)C[C@H](NC(=O)[C@@H]1CCCN1)B(O)O` [MG-319, {(R)-3-methyl-1-[(S)-pyrrolidine-2-carboxamido]butyl}boronic acid, reference compound], the EC50 was found to be 1900 nM in assay [1] (Colon cancer COLO 205, Hexosaminidase assay (*)); 22000 nM in [2] (setting [20]); 16000 nM in assay [3]; 5900 nM in assay [4]; 10000 nM in [5] (setting [21]); 19000 nM in [6]. Moreover, the EC50 in assay [7] stood at 10000 nM; in assay [8], 4500 nM; in assay [9], 4200 nM; in assay [10] it was 12300 nM; in assay [11] (setting [22]), 47000 nM; in assay [12] it was 25000 nM. Also, the EC50 worked out at 4200 nM in [13], 8800 nM in assay [14] (setting [23]), 1800 nM in assay [16] and 30000 nM in assay [17].
In the case of `CC(C)C[C@H](NC(=O)[C@@H]1N[C@H](c2ccccc2)[C@@H]([N+](=O)[O-])[C@@H]1c1ccc(F)cc1)B(O)O` [Example 6, (R)-1-((2R,3R,4S,5R)-3-(4-fluorophenyl)-4-nitro-5-phenylpyrrolidine-2-carboxamido)-3-methylbutylboronic acid], the EC50 in assay [1] (setting [19]) was determined as 2400 nM; in assay [2] (setting [20]), 83000 nM; in assay [3], 13000 nM; in assay [18], 14000 nM; in [4] it was 600 nM; in [5] (setting [21]), 100 nM. For the same compound, the EC50 was determined as 12000 nM in assay [6]; 13000 nM in [7]; 630 nM in assay [8]; 1900 nM in assay [9]; 27000 nM in assay [10]; 7300 nM in assay [11] (setting [25]). For the same compound, the EC50 turned out to be 12000 nM in assay [12]; 1800 nM in assay [13]; 13000 nM in [14] (setting [26]); 4400 nM in assay [15] (setting [24]); 2200 nM in assay [16]; 1900 nM in assay [17].
Consider `CC(C)C[C@H](NC(=O)[C@@H]1N[C@H](c2ccc3ccccc3c2)[C@@H]([N+](=O)[O-])[C@@H]1c1ccccc1)B(O)O` [Example 12, (R)-3-methyl-1-((2R,3R,4S,5R)-5-(naphthalen-2-yl)-4-nitro-3-phenylpyrrolidine-2-carboxamido)butylboronic acid], for which the EC50 was 2400 nM in [1] (setting [19]); 1900 nM in assay [2] (setting [20]); 1400 nM in assay [3]; 260 nM in [4]; 410 nM in [5] (setting [21]); 2400 nM in assay [6]. Moreover, the EC50 came to 620 nM in assay [7]; 140 nM in [8]; 160 nM in assay [9]; 850 nM in assay [10]; 780 nM in assay [11] (setting [22]); 2000 nM in assay [12]. Moreover, the EC50 in assay [13] is 120 nM; in assay [14] (setting [23]), 560 nM; in assay [16] it was 440 nM; in assay [17], 1300 nM.
Regarding `CC(C)C[C@H](NC(=O)[C@@H]1N[C@H](c2ccccc2)[C@@H]([N+](=O)[O-])[C@@H]1c1ccccc1)B(O)O` [Example 1, (R)-3-methyl-1-((2R,3R,4S,5R)-4-nitro-3,5-diphenylpyrrolidine-2-carboxamido)butylboronic acid], the EC50 came to 11000 nM in assay [1] (setting [19]); 5700 nM in assay [2] (setting [20]); 4100 nM in assay [3]; 720 nM in assay [4]; 970 nM in assay [5] (setting [21]); 4700 nM in assay [6]. In addition, the EC50 in [7] stood at 1300 nM; in assay [8], 670 nM; in [9], 490 nM; in assay [10] it was 3500 nM; in assay [11] (setting [22]) it was 25000 nM; in assay [12], 12000 nM. Further, the EC50 in assay [13] amounted to 390 nM; in assay [14] (setting [23]), 1100 nM; in [15] (Pancreatic cancer RWP-1, Hexosaminidase assay (*)), 24000 nM; in assay [16] it was 1900 nM; in [17], 700 nM.
